Experimental data: patent US20260250257A1, “ANTIBACTERIAL AND SYNERGISTIC ACTIVE COMPOUND AND USE THEREOF” (EAST CHINA UNIVERSITY OF SCIENCE AND TECHNOLOGY, priority 2023, published 2026)
In brackets after ≈: the same amount, converted by molar mass.

What was measured:
Type in all cases: cell-based
[1] = test system: ATCC13883 strain (Klebsiella pneumoniae); experiment: Checkerboard antibacterial synergistic activity test with polymyxin E (FIC); set-up: key: FIC≤0.5 synergy; 0.5–1 additive; 1–2 indifferent; ≥2 antagonism; conditions: combined with polymyxin E
How it was run: (§1)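 Broth checkerboard synergy with colistin; listed dilutions are working solutions, not final well levels. Overnight incubation, 16 h at 37° C.; FIC ≤0.5 denotes synergy, ≥2 antagonism.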

[2] = test system: ATCC9027 strain (Pseudomonas aeruginosa); experiment: as above; set-up: key: FIC≤0.5 synergy; 0.5–1 additive; 1–2 indifferent; ≥2 antagonism; conditions: combined with polymyxin E
How it was run: as §1

[3] = test system: ATCC19606 strain (Acinetobacter baumannii); experiment: as above; set-up: key: FIC≤0.5 synergy; 0.5–1 additive; 1–2 indifferent; ≥2 antagonism; conditions: combined with polymyxin E
How it was run: as §1

[4] = test system: ATCC25922 strain (Escherichia coli); experiment: as above; set-up: key: FIC≤0.5 synergy; 0.5–1 additive; 1–2 indifferent; ≥2 antagonism; conditions: combined with polymyxin E
How it was run: as §1

[5] = test system: ATCC13883 strain (Klebsiella pneumoniae); experiment: Broth microdilution, antibacterial activity of the compound used alone; conditions: for MIC: read-out: Antibacterial activity of the compound of Formula I, ATCC13883
From the text: (§2) The broth microdilution method was used to test the antibacterial effects of the compounds of the present invention against various Gram-negative bacterial strains when used alone.

[6] = test system: ATCC9027 strain (Pseudomonas aeruginosa); experiment: as above; conditions: for MIC: read-out: Antibacterial activity of the compound of Formula I, ATCC9027
From the text: as §2

[7] = test system: ATCC19606 strain (Acinetobacter baumannii); experiment: as above; conditions: for MIC: read-out: Antibacterial activity of the compound of Formula I, ATCC19606
From the text: as §2

[8] = test system: ATCC25922 strain (Escherichia coli); experiment: as above; conditions: for MIC: read-out: Antibacterial activity of the compound of Formula I, ATCC25922
From the text: as §2

| Structure (SMILES) | Synergistic activity (FIC value) ATCC13883 [1] | Synergistic activity (FIC value) ATCC9027 [2] | Synergistic activity (FIC value) ATCC19606 [3] | Synergistic activity (FIC value) ATCC25922 [4] | Antibacterial activity of the compound of Formula I, ATCC13883 [5] [µg/mL] | Antibacterial activity of the compound of Formula I, ATCC9027 [6] [µg/mL] | Antibacterial activity of the compound of Formula I, ATCC19606 [7] [µg/mL] | Antibacterial activity of the compound of Formula I, ATCC25922 [8] [µg/mL] | MIC [5] [µg/mL] | MIC [6] [µg/mL] | MIC [7] [µg/mL] | MIC [8] [µg/mL] |
| --- | --- | --- | --- | --- | --- | --- | --- | --- | --- | --- | --- | --- |
| Cc1oc(N=C(N)N)nc1-c1cccc(C#N)c1-c1cccs1 [Compound I-79] | 0.52 | 1.25 | 0.52 | 0.63 | 256 | 256 | 256 | 256 | – | – | – | – |
| NC(N)=Nc1nc(-c2cccc(C(=O)Nc3ccccc3)c2)cs1 [Compound I-110] | 0.31 | 0.5 | 0.25 | 0.56 | 256 | 256 | 256 | 256 | – | – | – | – |
| Clc1ccc(Oc2ccccc2)c(-c2coc(N=C3NCCCN3)n2)c1 [Compound I-134] | 0.53 | 0.52 | 1.25 | 1.25 | 256 | 256 | 256 | 256 | – | – | – | – |
| FC(F)(F)c1cc(-c2nc(N=C3NCCCN3)sc2Cl)ccc1Cl [Compound I-186] | 0.19 | 1.25 | 0.13 | 0.52 | 256 | 256 | 256 | 256 | – | – | – | – |
| Fc1cc(-c2csc(N=C3NCCCN3)n2)c(F)cc1Oc1ccccc1 [Compound I-136] | 1.25 | 1.25 | 1.25 | 0.5 | 256 | 256 | 256 | 256 | – | – | – | – |
| NC(N)=Nc1nc(-c2cccc(Oc3ccccc3)c2)cs1 [Compound I-2] | 0.75 | 0.53 | 0.26 | 0.51 | – | – | – | – | 256 (≈ 825 µM) | 256 (≈ 825 µM) | 256 (≈ 825 µM) | 256 (≈ 825 µM) |
| NC(N)=Nc1nc(-c2cccc(Oc3ccccc3Cl)c2)cs1 [Compound I-94] | 0.19 | 0.52 | 0.04 | 0.26 | 256 | 256 | 256 | 256 | – | – | – | – |
| CC(C)=CCOc1ccccc1-c1csc(N=C(N)N)n1 [Compound I-46] | 0.25 | 0.52 | 0.31 | 0.27 | 256 | 256 | 256 | 256 | – | – | – | – |
| Clc1cccc(-c2nc(N=C3NCCCN3)sc2Br)c1 [Compound I-185] | 1.25 | 1.25 | 0.75 | 1.25 | 256 | 256 | 256 | 256 | – | – | – | – |
| NC(N)=Nc1nc(-c2cccc(OCc3ccccc3)c2)cs1 [Compound I-8] | 0.53 | 0.53 | 0.25 | 1.25 | – | – | – | – | 256 (≈ 789 µM) | 128 (≈ 395 µM) | 256 (≈ 789 µM) | 256 (≈ 789 µM) |
| Cn1ccc2cccc(-c3c[se]c(N=C(N)N)n3)c21 [Compound I-72] | 0.31 | 0.5 | 0.25 | 0.56 | 256 | 256 | 256 | 256 | – | – | – | – |
| CC(C)=CCOc1cccc(-c2csc(N=C(N)N)n2)c1 [Compound I-47] | 1.25 | 1.25 | 0.75 | 0.5 | – | – | – | – | 256 (≈ 847 µM) | 256 (≈ 847 µM) | 256 (≈ 847 µM) | 256 (≈ 847 µM) |
| Cc1sc(N=C(N)N)nc1-c1ccccc1Oc1ccccn1 [Compound I-101] | 1.25 | 0.52 | 0.25 | 1.25 | 256 | 256 | 256 | 256 | – | – | – | – |
| Cc1oc(N=C(N)N)nc1-c1cccc2ccc(Cl)cc12 [Compound I-63] | 0.38 | 0.63 | 0.75 | 0.5 | 256 | 256 | 256 | 256 | – | – | – | – |
| CCc1sc(N=C(N)N)nc1-c1ccccc1Oc1ccc(N2CCOCC2)cc1 [Compound I-102] | 1.25 | 0.51 | 1.25 | 1.25 | 256 | 256 | 256 | 256 | – | – | – | – |
